PMC9530166, “Allosteric regulation of glycogen breakdown by the second messenger cyclic di-GMP” (Nature Communications, 2022)
“Also recorded” adds a separate entry of the source.

Key:
[1] = biological target: GlgX (Streptomyces venezuelae, UniProt F2RAW5); experiment: Fluorescence polarization (FP) binding, wild-type GlgX; settings: FP, 1 nM fluoresceinated ligand, 25 °C
Excerpt: (§1) Fig. 5 Structure of the S. venezuelae GlgX-c-di-GMP complex. a Ribbon diagram of the S. venezuelae GlgX-c-di-GMP complex with one GlgX subunit colored cyan and the other salmon. Shown as sticks are the c-di-GMP molecules bound at each end of the antiparallel dimer. […] There was clear density for each c-di-GMP molecule. b Close up of the GlgX-c-di-GMP binding interaction. Key residues mediating contacts to the c-di-GMP are shown as sticks and labeled. Hydrogen bonds from GlgX residues that specify binding to the guanine are indicated by yellow dashed lines. c Fluorescence polarization (FP) binding isotherm showing interaction of GlgX, GlgXE47A-R49A and GlgXR438A-R579A for F-c-di-GMP in red, green and blue respectively. Also shown is the binding isotherm for GlgX binding to F-c-di-AMP in black. […] The y-axis and x-axis are millipolarization (mP) units and GlgX concentration (μM), respectively. Shown are representative binding curves for each. The experiments were performed in technical triplicates and the error between measurements reported. Error bars represent SD of the measurements. Source data are provided in the Source data file.
Thus, we used this F-tagged c-di-GMP in fluorescence polarization (FP) studies to quantify the interaction between GlgX and c-di-GMP. […] To ensure that the presence of the fluorescent tag was not impacting the GlgX interaction with c-di-GMP we used microscale thermophoresis (MST) to quantify c-di-GMP binding to GlgX. […] But to further probe the structural model we created GlgXE47A-R49A and GlgXR438A-R579A mutants and performed FP studies with these proteins.
To measure c-di-GMP binding to GlgX and GlgX mutants, 2′-O-(6-[Fluoresceinyl]aminohexylcarbamoyl)-cyclic diguanosine monophosphate (2′-Fluo-AHC-c-di-GMP) (BioLog), was used as a fluoresceinated reporter ligand. This molecule is conjugated via a nine atom spacer to one of the c-di-GMP 2′ hydroxyl groups. […] 2′-O-(6-[Fluoresceinyl]aminohexylcarbamoyl)-cyclic diadenosine monophosphate (2′-Fluo-AHC-c-di-AMP) (BioLog) was also used in binding studies to assess specificity of GlgX for c-di-GMP. […]

[2] = test system: GlgXR438A-R579A; experiment: Fluorescence polarization binding, GlgXR438A-R579A; parameters: species or system Streptomyces venezuelae
Excerpt: as §1, with “Error bars represent SD of the measurements. Source data are provided in the Source data file.” left out
(§2) Thus, we used this F-tagged c-di-GMP in fluorescence polarization (FP) studies to quantify the interaction between GlgX and c-di-GMP. […] To ensure that the presence of the fluorescent tag was not impacting the GlgX interaction with c-di-GMP we used microscale thermophoresis (MST) to quantify c-di-GMP binding to GlgX. […]

[3] = test system: GlgXE47A-R49A; experiment: Fluorescence polarization binding, GlgXE47A-R49A; parameters: species or system Streptomyces venezuelae
Excerpt: as §1, with “Error bars represent SD of the measurements. Source data are provided in the Source data file.” left out
as §2

[4] = test system: His6-GlgX; experiment: DRaCALA with [32P]-c-di-GMP, wild-type GlgX; format: binding, Streptomyces venezuelae; settings: excess (100 µM) unlabeled nucleotide
Method: (§3) Fig. 1 GlgX binds c-di-GMP. a Quantification of c-di-GMP in S. venezuelae cell extracts using LC-MS/MS. Cells were harvested during late vegetative growth (8–10 h), transition to sporulation (12–16 h), and sporulation (18–20 h). Data are presented as the mean of biological replicates ±SD (n = 3). […] Source data are provided in the Source data file. c [^32P]-c-di-GMP binds to GlgX in DRaCALA assay indicated by dark spots in the center of the nitrocellulose membrane. For competition, excess (100 µM) of unlabeled c-di-GMP, c-di-AMP, or GTP was added to the reaction containing [^32P]-c-di-GMP and GlgX.
To determine if the interaction between Vnz29170 (herein called GlgX) and c-di-GMP is direct, we purified an N-terminally His6-tagged GlgX protein and performed nano differential scanning fluorimetry (nanoDSF) thermal shift assays. […] In addition, we used differential radial capillary action of ligand assays (DRaCALA), which allows visualization of protein-bound radiolabeled ligand as a central spot after the application of the protein-ligand mix onto nitrocellulose. Using DRaCALA we confirmed that GlgX from S. venezuelae binds ^32P-labeled c-di-GMP.
For DRaCALA assays, purified His6-GlgX (15 μg) was mixed with 0.5 μl undiluted [^32P]-c-di-GMP (42 nM) (Hartmann Analytic GmbH, Braunschweig) in binding buffer (25 mM Tris pH 8; 150 mM NaCl; 2.5% (v/v) glycerol; 5 mM MgCl2) and the reaction was incubated at rt for 5 min. For competition assays, 100 μM nonlabeled nucleotides were added to the samples and incubated at rt for 5 min prior to the addition of [^32P]-c-di-GMP. Reactions (10 μl) were spotted on the same nitrocellulose membrane (Roth), air dried for 10 min and analyzed via phosphorimaging.

[5] = test system: His6-GlgX (Vnz29170); experiment: nanoDSF label-free thermal shift assay, wild-type GlgX; format: binding, Streptomyces venezuelae; settings: 10 µM GlgX, 1 mM c-di-AMP
Method: as §3
To determine if the interaction between Vnz29170 (herein called GlgX) and c-di-GMP is direct, we purified an N-terminally His6-tagged GlgX protein and performed nano differential scanning fluorimetry (nanoDSF) thermal shift assays. […]
For label-free thermal shift assay experiments, 10 μM purified protein in 25 mM Tris pH 8, 150 mM NaCl, 2.5% (v/v) glycerol, and 5 mM MgCl2 was incubated without or with (1 mM) of nonlabeled c-di-GMP or c-di-AMP, respectively, at rt for 10 min. Reactions were subsequently analyzed in a Tycho NT.6 (NanoTemper Technologies) device with a 30 K/min thermal ramp and the internal fluorescence at 330 and 350 nm was recorded. […]

[6] = biological target: S. venezuelae glycogen debranching enzyme GlgX (Vnz29170) (S. venezuelae); experiment: crystal structure; GlgX with 3 mM c-di-GMP, 3.34 Å; 40% ethylene glycol, 0.1 M sodium acetate pH 4.6; two GlgX dimers in the asymmetric unit

Sequence of GlgX (F2RAW5 entry or part of it): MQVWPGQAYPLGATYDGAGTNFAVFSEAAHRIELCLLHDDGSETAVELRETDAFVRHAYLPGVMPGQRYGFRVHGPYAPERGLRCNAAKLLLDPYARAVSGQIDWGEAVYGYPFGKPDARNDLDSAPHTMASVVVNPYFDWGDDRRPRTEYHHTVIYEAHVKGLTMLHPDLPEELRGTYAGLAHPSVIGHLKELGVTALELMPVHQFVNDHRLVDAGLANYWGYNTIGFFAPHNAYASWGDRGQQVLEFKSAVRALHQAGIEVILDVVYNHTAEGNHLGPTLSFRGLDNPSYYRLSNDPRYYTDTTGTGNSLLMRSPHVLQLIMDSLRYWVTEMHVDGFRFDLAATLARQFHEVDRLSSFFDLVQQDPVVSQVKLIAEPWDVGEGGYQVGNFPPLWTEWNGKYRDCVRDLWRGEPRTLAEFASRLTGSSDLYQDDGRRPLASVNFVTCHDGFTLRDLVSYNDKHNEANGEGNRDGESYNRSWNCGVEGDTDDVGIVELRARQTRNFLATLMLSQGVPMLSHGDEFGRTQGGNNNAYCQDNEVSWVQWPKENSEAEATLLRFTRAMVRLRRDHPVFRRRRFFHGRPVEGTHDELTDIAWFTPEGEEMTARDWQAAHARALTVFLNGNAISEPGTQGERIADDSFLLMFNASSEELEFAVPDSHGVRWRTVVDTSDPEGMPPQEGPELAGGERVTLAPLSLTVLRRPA
Sequence of GlgXE47A-R49A (as listed by the source, stated change not applied): as the sequence (F2RAW5 entry or part of it) above, with E47A, R49A counted along it
Sequence of GlgXR438A-R579A (as listed by the source, stated change not applied): as the sequence (F2RAW5 entry or part of it) above, with R438A, R579A counted along it

2′-O-(6-[Fluoresceinyl]aminohexylcarbamoyl)-cyclic diadenosine monophosphate [F-c-di-AMP]
binding to WT GlgX in FP [1]: did not bind; also recorded: essentially no binding

2′-O-(6-[Fluoresceinyl]aminohexylcarbamoyl)-cyclic diguanosine monophosphate [F-c-di-GMP]
binding to mutant in FP [2]: nonsaturable binding | Kd ([1]; WT GlgX titrated, pH 7.5, read-out: Kd): 8.2 ± 1 µM | binding to mutant in FP [3]: nonsaturable binding

Nc1nc2c(ncn2[C@@H]2O[C@H](COP(=O)(O)OP(=O)(O)OP(=O)(O)O)[C@@H](O)[C@H]2O)c(=O)[nH]1 [GTP]
competition with 32P-c-di-GMP for binding to GlgX [4]: not c-di-AMP or GTP competed

Nc1ncnc2c1ncn2[C@@H]1O[C@@H]2COP(=O)(O)O[C@H]3[C@@H](O)[C@H](n4cnc5c(N)ncnc54)O[C@@H]3COP(=O)(O)O[C@H]2[C@H]1O [c-di-AMP]
competition with 32P-c-di-GMP for binding to GlgX [4]: not c-di-AMP or GTP competed | effect of ligand on melting point of His6-GlgX [5]: no effect

S. venezuelae glycogen debranching enzyme GlgX (Vnz29170)
stoichiometry N [6]: 2
